Earlier results in US8193207B2, “Lactam compounds and methods of using the same” (Incyte Corporation, priority 2005, dated 2012).

Target: T1, 11βHSD1 in the eye (Homo sapiens, UniProt P28845)
T1 construct: host or cells: eye tissue (non-pigmented epithelial cells) of healthy volunteers, in vivo
Details: healthy volunteers; after seven days of carbenoxolone treatment

T1 sequence (P28845 whole entry): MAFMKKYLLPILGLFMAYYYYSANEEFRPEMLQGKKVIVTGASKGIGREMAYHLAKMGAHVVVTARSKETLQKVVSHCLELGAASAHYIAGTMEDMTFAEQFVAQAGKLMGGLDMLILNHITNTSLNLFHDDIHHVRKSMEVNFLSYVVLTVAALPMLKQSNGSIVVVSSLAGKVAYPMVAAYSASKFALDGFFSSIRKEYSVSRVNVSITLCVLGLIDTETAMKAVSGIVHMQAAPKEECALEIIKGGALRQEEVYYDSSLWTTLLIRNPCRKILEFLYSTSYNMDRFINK

## CC1(C)[C@@H](OC(=O)CCC(=O)O)CC[C@]2(C)[C@H]3C(=O)C=C4[C@@H]5C[C@@](C)(C(=O)O)CC[C@]5(C)CC[C@@]4(C)[C@]3(C)CC[C@@H]12 [carbenoxolone]
  IOP reduction: 18%
